From ChEMBL document CHEMBL6087465, “Design, Synthesis, and Antitumor Activity Evaluation of 2-Phenylthiazole-5-Carboxylic Acid Derivatives Targeting Transactivation Response RNA-Binding Protein 2” (J Med Chem, 2025) come the findings set out here.

Data set [1] is described as follows: Half life in Wistar rat at 100 mg/kg,po administration measured upto 96 hrs by HPLC-UV analysis. To be noted: in vivo.
Data set [2] in a line: Toxicity in BALB/c mouse xenografted with human HCCLM3 cells assessed as pathological change in heart at 50 mg/kg,ip administration measured after 22 days by hematoxylin and eosin staining based microscopic analysis. The format is organism-based. The conditions noted are these: in vivo, 528 h, time 22 day.
Data set [3] is described as follows: Toxicity in BALB/c mouse xenografted with human HCCLM3 cells assessed as pathological change in spleen at 50 mg/kg,ip administration measured after 22 days by hematoxylin and eosin staining based microscopic analysis. The format is organism-based. To be noted: in vivo, 528 h, time 22 day. On the technique in general: A xenograft is tissue or cells of one species grown in another, often human tumour cells in immunodeficient mice.

Data set [4] has as its system HCCLM3. Kind of data set: Antiproliferative activity against human HCCLM3 cells cultured as 3D cells assessed as inhibition of colony formation at 25 uM incubated for 21 days by 3D soft-agar based microscopic analysis. The format is functional, cell-based. To be noted: time 21.0 day.
The nature of data set [5]: Toxicity in BALB/c mouse xenografted with human HCCLM3 cells assessed as pathological change in lung at 50 mg/kg,ip administration measured after 22 days by hematoxylin and eosin staining based microscopic analysis. The format is organism-based. To be noted: in vivo, 528 h, time 22 day.
Data set [6] in a line: Toxicity in BALB/c mouse xenografted with human HCCLM3 cells assessed as pathological change in liver at 50 mg/kg,ip administration measured after 22 days by hematoxylin and eosin staining based microscopic analysis. In kind it is organism-based. To be noted: in vivo, 528 h, time 22 day.
The nature of data set [7]: Toxicity in BALB/c mouse xenografted with human HCCLM3 cells assessed as body weight loss at 50 mg/kg,ip administration measured after 22 days. The conditions noted are these: in vivo, 528 h, time 22 day. In kind it is organism-based.
Data set [8] in a line: Toxicity in BALB/c mouse xenografted with human HCCLM3 cells assessed as pathological change in kidney at 50 mg/kg,ip administration measured after 22 days by hematoxylin and eosin staining based microscopic analysis. In kind it is organism-based. The conditions noted are these: in vivo, 528 h, time 22 day.
Data set [9] relates to HCCLM3. Kind of data set: Antitumor activity against human HCCLM3 cells xenografted in BALB/c mouse assessed as inhibition of tumor growth at 50 mg/kg,ip administration measured after 22 days. In kind it is functional, organism-based. The conditions noted are these: time 22.0 day.
Data set [10] is described as follows: Toxicity in BALB/c mouse xenografted with human HCCLM3 cells assessed as change in mental state at 50 mg/kg,ip administration measured after 22 days. In kind it is organism-based. The conditions noted are these: in vivo, 528 h, time 22 day.

SMILES strings stand for the structures. Calls of active or inactive are those of the source. No cut-off for these calls is given here.

As usually defined, the half-life is the time in which the quantity being followed falls by half. Low values mean rapid decline, high ones slow decline. Molecule `CNC(=O)c1cc(Oc2ccc(NC(=O)Nc3ccc(Cl)c(C(F)(F)F)c3)cc2)ccn1` [SORAFENIB] gave a half-life at 96 h in [1] of 21.9 h. Further, the Activity entry in [2] is “Non-toxic”; in [3], “Non-toxic”; in [5] it was “Non-toxic”; in data set [6], “Non-toxic”; in [7], “Toxic”; in data set [8], “Non-toxic”. For the same molecule, the Activity entry in data set [10] is “Toxic”. The outcome in data set [4] and in data set [9] was Active.
